Columns and labels:
Assay type in all cases: cell-based
Physalospora piricola = assay: MIC, broth tube dilution; conditions: 72 h, 28 ℃, read-out: Minimal inhibitory concentration (MIC)
Description: (§1) In this paper, antimicrobial activities of 24 QASs were detected by quantitative tests. […] Benzalkonium chloride (BZK) and chlorhexidine acetate (CA) was selected as positive controls. Representative compound POT-C12QAS (2) which synthesised and evaluated in previous work was also taken as a reference compound in MIC, MBC and cytotoxicity tests. […]
(§2) agriculture were used as target pathogens in this study, including three strains of Gram-positive bacteria (S. Aureus, α-H-tococcus, β-H-tococcus), three strains of Gram-negative bacteria (E. coli, P. aeruginosa, Proteus vulgaris) and four strains of fungi (Canidia albicans, Cytospora mandshurica, Physalospora piricola, Aspergillus niger). The antimicrobial tests were assayed, according to standard CLSI methods for antimicrobial dilution susceptibility tests to measure the minimum inhibitory concentration (MIC) and minimum bactericidal concentration (MBC)2.
(§3) A broth tube dilution method was followed to determine the MIC values for all the screened compounds against the micro-organisms, and for comparison benzalkonium chloride (BZK) and chlorhexidine acetate (CA) was used as a reference. For sample preparation, each of the test compounds and reference were dissolved in DMSO or sterile water at a concentration of 1600 μg/mL, and further dilutions of the compounds and reference in culture medium MHB (Muller-Hinton Broth) were prepared at the required quantities of 400, 200, 100 etc., down to 0.39 μg/mL. Bacterial strains and fungal strains were maintained on MHA (Muller-Hinton Agar) medium at 37℃ or 28 ℃ for 12 h or 72h, respectively. The microbial inocula were prepared by suspension in 10 mL of culture medium for colonies from culture on MHA. The cell density of each inoculum was adjusted in culture medium of a 0.5 McFarland standard (1-2×10^8 CFU/mL). The final amount applied was 10^5 CFU/mL for bacteria and fungi. The microbial inocula were added to the twofold diluted samples. One growth control tube was prepared […] the addition of the compound and one blank tube was prepared without the addition of the microorganism. MIC values were read after incubation at 37℃ or 28 ℃ for bacterial and fungal strains, respectively. After 12 h or 72h, the last tube with no growth of micro-organisms was recorded to represent the MIC value expressed in μg/ml. All experiments were carried out three times. […]

Cytospora mandshurica = assay: MIC, broth tube dilution; conditions: Cytospora, 72 h, 28 ℃, read-out: Minimal inhibitory concentration (MIC)
Description: as §1, §2, §3

Proteus vulgaris = assay: MIC, broth tube dilution; conditions: 12 h, 37℃, read-out: Minimal inhibitory concentration (MIC)
Description: as §1, §2, §3

Canidia albicans = assay: MIC, broth tube dilution; conditions: 72 h, 28 ℃, read-out: Minimal inhibitory concentration (MIC)
Description: as §1, §2, §3

P. aeruginosa = assay: MIC, broth tube dilution; conditions: Pseudomonas aeruginosa, 12 h, 37℃, read-out: Minimal inhibitory concentration (MIC)
Description: as §1, §2, §3

E. coli = assay: MIC, broth tube dilution; conditions: Escherichia coli, 12 h, 37℃, read-out: Minimal inhibitory concentration (MIC)
Description: as §1, §2, §3

β-H-tococcus [1] = assay: MIC, broth tube dilution; conditions: 12 h, 37℃, read-out: Minimal inhibitory concentration (MIC)
Description: as §1, §2, §3

S. aureus = assay: MIC, broth tube dilution; conditions: Staphylococcus aureus, 12 h, 37℃, read-out: Minimal inhibitory concentration (MIC)
Description: as §1, §2, §3

α-H-tococcus = assay: MIC, broth tube dilution; conditions: 12 h, 37℃, read-out: Minimal inhibitory concentration (MIC)
Description: as §1, §2, §3

Aspergillus niger = assay: MIC, broth tube dilution; conditions: 72 h, 28 ℃, read-out: Minimal inhibitory concentration (MIC)
Description: as §1, §2, §3

Haemolysis assay = conditions: human red blood cells (erythrocyte suspension), 1 h at 37 ℃, read-out: Haemolysis rate; for hemolysis at 1 h, 12.5 μg/mL: 12.50 μg/mL
Procedure: The surfactant may be absorbed and penetrate to the cell membrane, where it makes osmotic phenomena by altering the permeability of membrane, which in turn causes the cellular lysis. Haemolysis assay gives quantitative estimation about haemoglobin release when red blood cells are treated with QASs. Haemolytic assay of QASs at different concentration was carried out in Table 4. […] For 5a-b, 6a-b, 10a-c, 13a-b, and 16a-d, their safe concentration can more than 100 μg/mL. Compared with BZK and CA, all QASs were safe to be used when they circulated into the blood in low concentration. […]
The human blood from healthy individual was collected in a tube containing heparin, and the blood was centrifuged at 1500 rpm for 3 min. The […] (Erythrocyte) was collected and plasma was discarded and further washed five times with sterile normal saline solution. Then the cells were diluted to 0.2% of their volume with normal saline solution. 2 mL of the diluted red blood cells suspension was mixed with (a) 2 mL of normal salinesolution as a negative control; (b) 2 mL of distilled water as a positive control; (c) 2 mL of QAS solution which were dispersed into normal saline solution at the different concentrations ranging from 3.125 to 400 μg/mL. Then the mixtures were shaken well and incubated for 1 h at 37 ℃. Finally, the mixtures were centrifuged for 5min at 2000 r/min and the absorbances of supernatant at 540 nm was measured by a microplate reader (Multiskan MK3-Thermo Labsystems, USA). The hemolysis ratio was calculated as follows: The hemolysis ratio(%) = (OD Sample−OD Negative)/(OD Positive −OD Negative) ×100%. The hemolysis evaluation of QASs was performed in triplicate and results were expressed as the mean ± SD.

β-H-tococcus [2] = assay: MBC, agar plating of dilutions without growth; conditions: 99.9% bactericidal, read-out: Minimal bactericidal concentration (MBC)
Description: as §1, §2
as §3, with “respectively.” for “respectively. After 12 h or 72h, the last tube with no growth of micro-organisms was recorded to represent the MIC value expressed in μg/ml. All experiments were carried out three times.”
was placed on agar plates in triplicate, and incubated at 37℃ or 28 ℃ for 12 h or 72h. The number of colonies on each plate was read, and the MBC was determined as the lowest concentration that achieved a 99.9% bactericidal in the agar plate.

In the case of C[N+](CCO)(CCO)CCCCCCCCSc1nnc(-c2ccc(C(F)(F)F)cc2)o1 [Compound 6b], the MIC (Physalospora piricola) is reported as 3.12 µg/mL, the MIC (Cytospora mandshurica) is reported as 12.5 µg/mL and the MIC (Proteus vulgaris) is reported as 50 µg/mL. For the same molecule, the MIC (Canidia albicans) was 25 µg/mL, the MIC (P. aeruginosa) was 50 µg/mL and the MIC (E. coli) was 25 µg/mL. For the same molecule, the MIC (β-H-tococcus [1]) was 12.5 µg/mL, the MIC (S. aureus) was 25 µg/mL and the MIC (α-H-tococcus) was 12.5 µg/mL. For the same molecule, the MIC (Aspergillus niger) was 12.5 µg/mL, the hemolysis at 1 h, 6.25 μg/mL (Haemolysis assay) was 0.18 ± 0.06% and the hemolysis at 1 h, 12.5 μg/mL (Haemolysis assay) was 0.51 ± 0.08%. It also gave a hemolysis at 1 h, 25 μg/mL (Haemolysis assay) of 0.43 ± 0.1%, a hemolysis at 1 h, 50 μg/mL (Haemolysis assay) of 0.7 ± 0.18% and a hemolysis at 1 h, 100 μg/mL (Haemolysis assay) of 4.61 ± 0.31%. The hemolysis at 1 h, 200 μg/mL (Haemolysis assay) was 26.2 ± 3.68%, the hemolysis at 1 h, 400 μg/mL (Haemolysis assay) was 80.4 ± 4.98% and the MBC (β-H-tococcus [2]) was 12.5 µg/mL.
C[N+](CCO)(CCO)CCCCCCCCCCSc1nnc(-c2ccc(C(F)(F)F)cc2)o1.[Br-] [Compound 6c] showed an MIC (Physalospora piricola) of 3.12 µg/mL, an MIC (Cytospora mandshurica) of 12.5 µg/mL and an MIC (Proteus vulgaris) of 25 µg/mL. It also gave an MIC (Canidia albicans) of 25 µg/mL, an MIC (P. aeruginosa) of 50 µg/mL and an MIC (E. coli) of 25 µg/mL. For the same molecule, the MIC (β-H-tococcus [1]) was 6.25 µg/mL, the MIC (S. aureus) was 25 µg/mL and the MIC (α-H-tococcus) was 12.5 µg/mL. The MIC (Aspergillus niger) was 12.5 µg/mL, the hemolysis at 1 h, 6.25 μg/mL (Haemolysis assay) was 0.57 ± 0.15% and the hemolysis at 1 h, 12.5 μg/mL (Haemolysis assay) was 0.42 ± 0.13%. It also gave a hemolysis at 1 h, 25 μg/mL (Haemolysis assay) of 0.67 ± 0.13%, a hemolysis at 1 h, 50 μg/mL (Haemolysis assay) of 3.56 ± 1.32% and a hemolysis at 1 h, 100 μg/mL (Haemolysis assay) of 35.8 ± 5.1%. For the same molecule, the hemolysis at 1 h, 200 μg/mL (Haemolysis assay) was 82.5 ± 6.12%, the hemolysis at 1 h, 400 μg/mL (Haemolysis assay) was 89.4 ± 4.35% and the MBC (β-H-tococcus [2]) was 6.25 µg/mL.
For C[N+](CCO)(CCO)CCCCCCCCCCCCSc1nnc(-c2ccccc2)o1 [Compound 2, reference compound], the MIC (Physalospora piricola) was 3.12 µg/mL, the MIC (Cytospora mandshurica) was 3.12 µg/mL and the MIC (Proteus vulgaris) was 25 µg/mL. For the same molecule, the MIC (Canidia albicans) was 6.25 µg/mL, the MIC (P. aeruginosa) was 12.5 µg/mL and the MIC (E. coli) was 25 µg/mL. For the same molecule, the MIC (β-H-tococcus [1]) was 6.25 µg/mL, the MIC (S. aureus) was 6.25 µg/mL and the MIC (α-H-tococcus) was 6.25 µg/mL. It also gave an MIC (Aspergillus niger) of 3.12 µg/mL, a hemolysis at 1 h, 6.25 μg/mL (Haemolysis assay) of 0.18 ± 0.05% and a hemolysis at 1 h, 12.5 μg/mL (Haemolysis assay) of 0.42 ± 0.13%. The hemolysis at 1 h, 25 μg/mL (Haemolysis assay) was 0.93 ± 0.41%, the hemolysis at 1 h, 50 μg/mL (Haemolysis assay) was 4.11 ± 0.89% and the hemolysis at 1 h, 100 μg/mL (Haemolysis assay) was 17.1 ± 2.34%. The hemolysis at 1 h, 200 μg/mL (Haemolysis assay) was 82.8 ± 3.18%, the hemolysis at 1 h, 400 μg/mL (Haemolysis assay) was 90.6 ± 4.23% and the MBC (β-H-tococcus [2]) was 6.25 µg/mL.
